Reference: PubChem BioAssay AID618 (Sanford-Burnham Center for Chemical Genomics, 2007)
The source made the active and inactive calls. The rule behind the calls is not given here.

test system: MT1-MMP promoter luciferase reporter cells, luminescence; assay: inhibitors of MT1-MMP promoter transcription, cell-based, luciferase reporter, luminescence (AID 618);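 note: actives suppress MT1-MMP promoter-driven transcription so potencies describe inhibitors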

Point of comparison: O=C(Nc1nc2ccccc2[nH]1)c1ccccc1, EC50 3.53 µM. Against it:
- COc1ccc(C(=O)Nn2c(SCC(=O)N3CCC(C)CC3)nc3ccccc3c2=O)cc1 — 1.8-fold lower, 1.98 µM
- Brc1ccccc1-c1nc(-c2ccccc2)no1 — 2-fold higher, 6.92 µM
- COc1cccc(C(=O)/C=C/Nc2cccc(O)c2)c1 — 20-fold lower, 0.18 µM
- Cc1ccc2nc(-c3cccc(N)c3)oc2c1 — within 1.5-fold, 3.71 µM
- O=C(N/N=C/c1ccc([N+](=O)[O-])s1)c1ccccc1Br — within 1.5-fold, 2.8 µM
- CCCCCc1ccc(-c2ccc(C(=O)O)cc2)nc1 — the same, 3.53 µM
- Cc1ccc2nc(NC(=O)c3ccco3)sc2c1 — 3.5-fold lower, 1 µM
- Cc1ccc(C(=O)/C=C2\NCC(C)NC2=O)cc1 (stereo not given) — the same, 3.53 µM
- O=C(c1cc(-c2cccc(O)c2)on1)N1CCCCC1 — 1.8-fold higher, 6.35 µM
- Cc1cc(C(=O)COC(=O)c2n[nH]c3ccccc23)c(C)n1C — 2-fold higher, 7.21 µM
- COc1ccc(C(=O)Nc2nnc(-c3ccco3)s2)cc1 — 2-fold lower, 1.73 µM
- COc1ccc(NC(=O)c2cc3ccccn3n2)cc1 — within 1.5-fold, 4.38 µM
- CC1CCN(c2nc3ccc(C(=O)O)cc3s2)CC1 — 10-fold lower, 0.35 µM
- Cc1ccc2nc(-c3cc(N)cc(N)c3)oc2c1 — 2.2-fold lower, 1.57 µM
- Cc1nc(Nc2nc3ccccc3o2)nc2c1CCC2 — within 1.5-fold, 3.09 µM
- CCN1C=CC(=C2C(=O)c3ccccc3C2=O)C=C1 — 18-fold lower, 0.2 µM
- Nc1ccc2nc(-c3ccccc3)sc2c1 — 1.8-fold lower, 1.91 µM
- C/C(=N/NC(=O)c1cc(C2CC2)[nH]n1)c1cccs1 — 2-fold lower, 1.77 µM
- Cc1cc(C(=O)Nc2cccc(C(=O)O)c2)oc1C — 4.3-fold lower, 0.82 µM
- Nc1nc(Nc2ccc(Cl)cc2)nc2ccccc12 — 1.7-fold lower, 2.13 µM
- O=C(c1cccc(COc2ccc(Cl)cc2Cl)c1)N1CCN(c2ccccn2)CC1 — 3.6-fold higher, 12.6 µM
- Cc1ccc(-c2nc3cc(NC(=O)C(C)C)ccc3o2)cc1 — 1.6-fold higher, 5.62 µM
- Nc1ccc2oc(-c3ccc4nc[nH]c4c3)nc2c1 — within 1.5-fold, 4.29 µM
- O=C(Nc1nc2c(s1)CCCC2)C1COc2ccccc2O1 (stereo not given) — within 1.5-fold, 2.4 µM
- Cc1ccc(C(=O)Nc2cccc(C(=O)O)c2)cc1S(=O)(=O)N1CCCCC1 — 2.1-fold higher, 7.25 µM
- O=C(Nc1ccc(N2CCCCC2)cc1)c1ccccc1 — within 1.5-fold, 3.57 µM
- COc1ccc(NC(=O)/C(Cl)=C(/Cl)S(=O)(=O)Cc2ccc(C)cc2)cn1 — 4.1-fold higher, 14.5 µM
- Cc1cc(NCCCn2ccnc2)n2ncc(-c3ccc(Cl)cc3)c2n1 — 2.5-fold higher, 8.72 µM
- COc1ccc(N=CC2=C(O)c3ccccc3C2=O)c(OC)c1 — 4.5-fold lower, 0.79 µM
- COc1cc([N+](=O)[O-])ccc1N/C=C/C(=O)c1cccs1 — 1.7-fold lower, 2.05 µM
- COc1ccc(-c2cc(C(=O)O)c(C)o2)cc1OC — within 1.5-fold, 3.55 µM
- Cc1cc(N)n2nc(-c3ccccc3)cc2n1 — 9.7-fold higher, 34.4 µM
- O=C(CSc1nnc(-c2ccccc2)o1)Nc1ccccc1F — 4.3-fold lower, 0.82 µM
- O=c1c2c(nc3cc(-c4ccc(F)cc4)[nH]n13)CCCC2 — 1.8-fold higher, 6.48 µM
- CCCC(=O)Nc1ccc(-c2nc3cc(C)ccc3o2)cc1 — 3.4-fold higher, 12 µM
- CCCCc1ccc(-c2nc(-c3ccncc3)no2)cc1 — 3.8-fold higher, 13.4 µM
- CCN(CC)c1ccc2cc(NC(=O)CCC(=O)O)c(=O)oc2c1 — 5.3-fold lower, 0.67 µM
- Cc1cc(C)c(C)c(S(=O)(=O)Nc2ccccc2C(=O)NCCCn2ccnc2)c1C — 1.9-fold lower, 1.82 µM
- CN(C)CCCNS(=O)(=O)c1ccc(N2CCC(c3ccc(Cl)cc3)=N2)cc1 — 3.4-fold higher, 12 µM
- CCOc1ccc2nc(NC(=O)c3ccoc3C)sc2c1 — 3.6-fold lower, 0.97 µM
- CC(C)C(=O)NC(c1ccco1)c1ccc2cccnc2c1O (stereo not given) — 7.8-fold higher, 27.6 µM
- CCc1ccc2oc(-c3cccc(N)c3)nc2c1 — within 1.5-fold, 3.93 µM
- O=c1c2sc(-c3ccccc3)cc2nc2n1CCC2 — within 1.5-fold, 4.05 µM
- COC(=O)c1nn(-c2ccc3c(c2)CCN3C(C)=O)cc1O — 5.8-fold lower, 0.61 µM
- Fc1ccccc1OCCSc1nnnn1-c1ccccc1 — 3.6-fold higher, 12.7 µM
- Cc1ccsc1/C=C1\CCc2ccccc2C1=O — within 1.5-fold, 3.09 µM
- COc1ccc(C(=O)Nn2c(SCC(=O)NCc3ccco3)nc3ccccc3c2=O)cc1 — 3.1-fold lower, 1.14 µM
- COC(=O)CCn1nnc(-c2ccc(C(C)C)cc2)n1 — 32-fold lower, 0.11 µM
- O=C(/C=C\Nc1ccccn1)c1ccc(Cl)cc1 — 3-fold lower, 1.18 µM
- Cc1ccccc1NC(=O)c1cnc2ccccn2c1=O — 1.7-fold lower, 2.13 µM
- Cc1ccoc1C(=O)Nc1ccc(CC(=O)O)cc1 — 8.4-fold lower, 0.42 µM
- CCOc1ccc(-c2cc(CCCC(=O)NCCCOC)no2)cc1 — 2.4-fold higher, 8.32 µM
- O=C1C(N2CCOCC2)=C(n2nnc3ccccc32)C(=O)c2ccccc21 — 3-fold higher, 10.5 µM
- O=C(O)c1cccc(C(=O)Nc2cccc(NC(=O)C3CCCO3)c2)c1 (stereo not given) — 2.9-fold higher, 10.1 µM
- CN(C(=O)c1ccco1)c1nc2c(s1)CCCC2 — 2-fold higher, 7.12 µM
- CCOc1ccc(-c2cc(CCCC(=O)Nc3cc(OC)ccc3OC)no2)cc1 — within 1.5-fold, 3.5 µM
- Cc1cnc(NC(=O)C2COc3ccccc3O2)s1 (stereo not given) — 5.8-fold lower, 0.61 µM
- Cc1ccnc(Nc2nc3ccccc3o2)n1 — 3.7-fold higher, 13 µM
- COc1cccc(-c2nc(-c3ccccn3)no2)c1 — 5.3-fold lower, 0.66 µM
- Clc1ccc(-c2nnc(N3CCCC3)nn2)cc1 — 1.8-fold higher, 6.38 µM
- Cc1ccc(O)c(/C=N/NC(=O)C2=NNC(c3ccccc3)(c3ccccc3)C2)c1 — 5.4-fold higher, 19 µM
- CCCCCCOc1ccc(CN2CCN(CCO)CC2)cc1 — 3.4-fold higher, 12.1 µM
- CC(=O)Nc1ccc(SCC(=O)c2cc(C)n(Cc3cccs3)c2C)cc1 — 2.9-fold lower, 1.22 µM
- C=CCNc1nc(-c2ccccn2)nnc1-c1ccccc1 — 4.3-fold higher, 15.2 µM
- CC(=O)c1sc(NC(=O)C2COc3ccccc3O2)nc1C (stereo not given) — 1.5-fold higher, 5.39 µM
- Cc1cc(/C=N/n2cnnc2)c(C)n1-c1ccc(OCc2ccc(Cl)cc2Cl)cc1 — 2.7-fold higher, 9.47 µM
- COc1cccc(-c2nc3cc(C)ccc3o2)c1 — within 1.5-fold, 4.41 µM
- O=C(c1c(Cl)nc2sccn12)N1CCN(c2cccc(Cl)c2)CC1 — 14-fold higher, 48.6 µM
- Cc1ccc(-c2nc3cc(C)ccc3o2)cc1 — 1.5-fold lower, 2.32 µM
- Cc1nn2cc(-c3ccccc3)nc2s1 — 3.5-fold higher, 12.3 µM
- CC1CC(C)(C)Nc2ccc(OC(=O)c3ccco3)cc21 (stereo not given) — within 1.5-fold, 3.01 µM
- CN(C)c1ccc(N/C=C/C(=O)c2ccco2)cc1 — within 1.5-fold, 4.42 µM
- CCCc1cc(C(=O)Nc2nccs2)cs1 — 3.6-fold higher, 12.7 µM
- Cc1ccc(NC(=O)N2CCc3ccccc32)cc1 — within 1.5-fold, 3.38 µM
- N#Cc1c(NC(=O)CSc2ncn[nH]2)sc2c1CCCC2 — 4.8-fold lower, 0.73 µM
- Oc1cccc(-c2nc3ccccc3s2)c1 — within 1.5-fold, 2.99 µM
- Cc1nc2ccc(-c3nc4cc(N)ccc4o3)cc2[nH]1 — within 1.5-fold, 3.71 µM
- O=C1C(Cl)=C(N2CCCCC2)C(=O)C(Cl)=C1c1cnc(N2CCCCC2)s1 — within 1.5-fold, 4.53 µM
- COc1ccc(C(=O)Nn2c(SCC(=O)NCc3ccccc3)nc3ccccc3c2=O)cc1 — 2.7-fold lower, 1.29 µM
- Fc1ccc(-c2nnc(-c3ccc(Cl)cc3Cl)o2)cc1 — 2.3-fold higher, 8.19 µM
- CC(C)c1ccc2oc(-c3ccc(N)cc3)nc2c1 — 2.1-fold lower, 1.66 µM
- Cc1cc(C)c2c(N)c(C(=O)Nc3nccs3)sc2n1 — 2.7-fold lower, 1.32 µM
- Cn1c(-c2ccccc2)cnc1SCC(=O)N1CCCCC1 — within 1.5-fold, 2.88 µM
- Cc1ccc(SCc2cn3c(C)csc3n2)cc1 — 1.6-fold higher, 5.82 µM
- Cc1cc(-c2csc(N)n2)c(C)n1CCc1ccccc1 — 3.7-fold higher, 13.2 µM
- O=C(NC1=NC2CCCCC2N1)c1ccccc1 (stereo not given) — 3.7-fold higher, 12.9 µM
- O=C1c2ccccc2C(=O)C1c1nccc2ccccc12 — 1.9-fold lower, 1.83 µM
- CCc1ccc(-c2cc(C(=O)Nn3cnnc3)c3ccccc3n2)cc1 — 1.7-fold lower, 2.12 µM
- Cc1ccc(C(=O)N/N=C/c2ccc([N+](=O)[O-])s2)cc1 — 12-fold lower, 0.3 µM
- O=C(COc1ccc(CO)cc1Cl)Nc1ccc(F)cc1 — within 1.5-fold, 3.02 µM
- COCCn1c(C)cc(C2=NNC(=Nc3ccccc3F)SC2)c1C — within 1.5-fold, 3.04 µM
- N#Cc1cc2c(nc1SCC(=O)Nc1nccs1)CCCCC2 — 2.2-fold higher, 7.77 µM
- Cc1csc(NC(=O)C2COc3ccccc3O2)n1 (stereo not given) — 2.2-fold lower, 1.64 µM
- CCc1ccc(NC(=O)c2noc3c2CCC3)cc1 — within 1.5-fold, 4 µM
- c1ccc(-c2nc(-c3ccccn3)no2)cc1 — 2.3-fold higher, 8.19 µM
- O=C(c1ccc(Cl)cc1)N1CCCCC(Sc2nnc(-c3ccc4c(c3)OCO4)o2)C1=O (stereo not given) — 25-fold lower, 0.14 µM
- O=C1/C(=C/Nc2ccc3c(c2)OCO3)CCc2ccccc21 — 4.4-fold lower, 0.81 µM
- COc1cccc(Cn2c(NCc3cccnc3)nc3c2c(=O)n(C)c(=O)n3C)c1 — 14-fold lower, 0.25 µM
- COc1ccc(-c2cc3nnc(-c4ccccc4)nc3s2)cc1 — 4.1-fold lower, 0.86 µM
- Cc1ccc2nc(-c3cccc(N)c3)[nH]c2c1 — within 1.5-fold, 2.8 µM
- Cc1ccccc1Cn1nnc(-c2cccc(C(=O)O)c2)n1 — 5.1-fold higher, 18 µM
- CN1CCN(CC(=O)N2CCn3c4c(c5cc(C6CCCCC6)ccc53)CCCC42)CC1 (stereo not given) — 3.4-fold higher, 12 µM
- Nc1ccc(-c2nc3ccc(N)cc3o2)cc1 — 4-fold higher, 14 µM
- O=C(O)CCSc1nc2ccccc2s1 — 4.4-fold higher, 15.4 µM
- c1ccc(-c2cn3nc4c(nc3n2)CCCC4)cc1 — 6.5-fold lower, 0.54 µM
- Oc1ccc(Nc2nc(N3CCCC3)c3ccccc3n2)cc1 — 7.5-fold higher, 26.5 µM
- Cc1ccc(C(=O)Nc2cccc(C(=O)O)c2)cc1 — 5.3-fold lower, 0.66 µM
- Cc1c(C(=O)NC2=NCCS2)oc2ccccc12 — 2.6-fold higher, 9.29 µM
- CCOC(=O)CNC(=O)CSc1ncnc2c1cnn2-c1ccc(C)cc1 — 7.9-fold higher, 28 µM
- CC(C)(C)c1ccc(-c2nc(-c3ccncc3)no2)cc1 — 1.7-fold higher, 6.13 µM
- COc1nc(C)ccc1-c1noc(-c2ccco2)n1 — 3.1-fold higher, 10.9 µM
- Oc1c(CN2CCCCC2)cc(COCc2ccccc2)c2cccnc12 — 2-fold higher, 6.94 µM
- Cc1ccc(-c2nc3cc(N)ccc3o2)cc1 — within 1.5-fold, 2.91 µM
- Cc1ccc(-c2nc(-c3ccccc3)no2)cc1 — within 1.5-fold, 2.87 µM
- O=C(/C=C/Nc1cccc(O)c1)c1ccccc1 — 2.7-fold lower, 1.32 µM
- CC(C)(C)c1ccc(-c2noc(CCC(N)=O)n2)cc1 — 27-fold lower, 0.13 µM
- CC(=O)N(Cc1ccc(F)cc1)C1=C(NCCc2ccccc2)C(=O)c2ccccc2C1=O — 3.5-fold higher, 12.2 µM
- Cc1nc2cc(-c3cccc(F)c3)nn2c(C)c1CCC(=O)NC(C)CCc1ccco1 (stereo not given) — 3.2-fold lower, 1.12 µM
- Cc1cccc(-n2ncc3c(N4CCCC4)ncnc32)c1 — 2.2-fold higher, 7.6 µM
- CN1/C(=C\C=C\C2=[N+](C)c3ccc4ccccc4c3C2(C)C)C(C)(C)c2ccccc21 — within 1.5-fold, 4.71 µM
- COc1ccc(C(=O)/C=C/Nc2cccc(O)c2)cc1 — 2.9-fold lower, 1.23 µM
- COc1ccc(-n2ncc3c(NC(C)C)ncnc32)cc1 — 1.5-fold higher, 5.36 µM
- c1ccc(-c2nc3cc4ccccc4cc3[nH]2)nc1 — 4.4-fold lower, 0.8 µM
- CCOc1ccc(NC(=O)c2cnsn2)cc1 — 2.5-fold higher, 8.78 µM

In the case of Cc1cc(C)n(-c2nc3ccccc3nc2N2CCC(C)CC2)n1, the EC50 is reported as > 50 µM (inactive).
For CN(C)c1nc(-c2ccccn2)nnc1-c1ccccc1, the EC50 was > 50 µM (inactive).
O=C1C(c2ccnc3ccccc23)=C(O)c2ccccc21 was tested, and the EC50 was > 50 µM (inactive).
For CC(=O)Nc1ccc(OC(=O)N2CCCCC2)cc1, the EC50 was > 50 µM (inactive).
With Cc1cc(NC(=O)CSc2nc(-c3ccco3)cc(C(F)(F)F)n2)no1 the EC50 was > 50 µM (inactive).
